In BindingDB's records for doi:10.1074/jbc.M110.164293 (Manchester Interdisciplinary Biocentre, 2010):

What was measured:
Assay in all cases: Binding Assay
[1] = target: T1, Steroid C26-monooxygenase (Mycobacterium tuberculosis (strain CDC 1551 / Oshkosh), UniProt P9WPP0)
T1 sequence (P9WPP0 whole entry): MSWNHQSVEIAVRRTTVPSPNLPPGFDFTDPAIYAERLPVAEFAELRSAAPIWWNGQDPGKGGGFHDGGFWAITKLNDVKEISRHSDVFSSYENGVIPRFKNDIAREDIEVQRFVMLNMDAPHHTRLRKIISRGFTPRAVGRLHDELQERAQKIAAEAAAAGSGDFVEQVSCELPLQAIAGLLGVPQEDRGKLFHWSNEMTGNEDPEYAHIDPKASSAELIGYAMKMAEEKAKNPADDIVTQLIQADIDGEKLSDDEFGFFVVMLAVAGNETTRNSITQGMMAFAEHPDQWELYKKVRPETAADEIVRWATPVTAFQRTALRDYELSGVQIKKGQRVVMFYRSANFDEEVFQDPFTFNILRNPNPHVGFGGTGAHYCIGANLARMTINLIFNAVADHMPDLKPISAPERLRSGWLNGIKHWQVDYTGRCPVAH
Description: (§1) Substrate and ligand binding assay using UV- visible absorbance analysis of CYP142 was done on a Cary UV-50 UV-visible scanning spectrophotometer (Varian, UK) using a 1-cm path length quartz cuvette, recording spectra between 250 and 800 nm.

[2] = target: T2, Steroid C26-monooxygenase (Mycobacterium tuberculosis (strain CDC 1551 / Oshkosh), UniProt P9WPL4)
T2 sequence (P9WPL4 whole entry): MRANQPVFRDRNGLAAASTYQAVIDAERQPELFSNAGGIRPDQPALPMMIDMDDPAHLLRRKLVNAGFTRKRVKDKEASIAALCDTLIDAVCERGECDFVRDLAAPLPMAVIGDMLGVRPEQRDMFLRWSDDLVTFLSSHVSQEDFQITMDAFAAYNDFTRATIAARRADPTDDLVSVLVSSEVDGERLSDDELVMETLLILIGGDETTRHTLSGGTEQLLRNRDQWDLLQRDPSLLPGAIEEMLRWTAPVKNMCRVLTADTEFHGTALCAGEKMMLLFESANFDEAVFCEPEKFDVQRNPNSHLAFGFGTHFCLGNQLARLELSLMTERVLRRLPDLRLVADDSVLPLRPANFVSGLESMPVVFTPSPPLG
Description: as §1

Cytochrome P450 144 = target: T3, Cytochrome P450 144 (Mycobacterium tuberculosis (strain CDC 1551 / Oshkosh), UniProt P9WPL0)
T3 sequence (P9WPL0 whole entry): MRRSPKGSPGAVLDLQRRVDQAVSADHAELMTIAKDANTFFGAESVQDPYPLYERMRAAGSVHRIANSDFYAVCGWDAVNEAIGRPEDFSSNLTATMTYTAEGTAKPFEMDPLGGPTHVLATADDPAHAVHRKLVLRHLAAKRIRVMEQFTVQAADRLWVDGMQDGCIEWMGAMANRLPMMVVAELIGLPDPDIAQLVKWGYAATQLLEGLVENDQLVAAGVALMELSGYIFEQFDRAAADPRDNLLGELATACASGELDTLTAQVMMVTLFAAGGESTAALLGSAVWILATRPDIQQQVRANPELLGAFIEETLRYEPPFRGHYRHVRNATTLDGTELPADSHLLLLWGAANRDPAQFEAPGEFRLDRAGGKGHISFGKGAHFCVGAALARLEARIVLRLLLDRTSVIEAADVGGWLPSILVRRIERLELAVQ
Description: as §1

CC(=O)N1CCN(c2ccc(OC[C@H]3CO[C@](Cn4ccnc4)(c4ccc(Cl)cc4Cl)O3)cc2)CC1 [24F2-1,25(OH)D3]
Kd [1]: 27.1 µM
Kd [2]: 21 µM
Kd (Cytochrome P450 144): 134 µM

Clc1ccc(CO[C@@H](Cn2ccnc2)c2ccc(Cl)cc2Cl)c(Cl)c1 [Brentan]
Kd [1]: 4.6 µM
Kd [2]: 4 µM
Kd (Cytochrome P450 144): 0.98 µM

CC(C)CCC[C@@H](C)[C@H]1CC[C@H]2[C@@H]3CCC4=CC(=O)CC[C@]4(C)[C@H]3CC[C@]12C [4-Cholesten-3-one]
Kd [1]: 1.2 µM
Kd [2]: 0.36 µM

Clc1ccccc1C(c1ccccc1)(c1ccccc1)n1ccnc1
Kd [1]: 5.3 µM
Kd [2]: 3.8 µM
Kd (Cytochrome P450 144): 0.37 µM

CC(C)CCC[C@@H](C)[C@H]1CC[C@H]2[C@@H]3CC=C4C[C@@H](O)CC[C@]4(C)[C@H]3CC[C@]12C [(1S,2R,5S,10S,11S,14R,15R)-2,15-dimethyl-14-[(2R)-6-methylheptan-2-yl]tetracyclo[8.7.0.0^{2,7}.0^{11,15}]heptadec-7-en-5-ol]
Kd [1]: 0.11 µM
Kd [2]: 0.34 µM

c1ccc(-c2c[nH]cn2)cc1
Kd [1]: 216 µM
Kd [2]: 12 µM
Kd (Cytochrome P450 144): 280 µM

Clc1ccc(COC(Cn2ccnc2)c2ccc(Cl)cc2Cl)cc1 (configuration not stated) [ECONAZOLE]
Kd [1]: 11.7 µM
Kd [2]: 4.6 µM
Kd (Cytochrome P450 144): 0.78 µM

CCC(C)n1ncn(-c2ccc(N3CCN(c4ccc(OC[C@H]5CO[C@](Cn6cncn6)(c6ccc(Cl)cc6Cl)O5)cc4)CC3)cc2)c1=O (some centres not stated) [Oriconazole]
Kd [1]: 30.2 µM

OC(Cn1cncn1)(Cn1cncn1)c1ccc(F)cc1F [Fungata]
Kd [1]: 43.1 µM
Kd [2]: 860 µM
